Reference: patent publication US20160102363A1, “METHODS AND COMPOSITIONS FOR PREDICTING THERAPEUTIC EFFICACY OF KINASE INHIBITORS IN PATIENTS WITH MYELODYSPLASTIC SYNDROME OR RELATED DISORDERS” (ONCONOVA THERAPEUTICS, INC., priority 2013, published 2016)

Test system: MDS patients
Assay: Clinical hematological response of MDS patients treated with Rigosertib
Format: in vivo, human
Details: number of patients of 32 MDS patients
Description: As used herein, “response” is defined by standard clinical criteria, importantly including amelioration of transfusion-dependent anemia, which is a major hallmark of myelodysplastic syndromes (MDS).
This study sought to identify DNA methylation markers that can predict the therapeutic response to a different, and an even more widely pertinent, class of anti-cancer drugs, namely broad-specificity tyrosine kinase inhibitors (TKI's) or a broad specificity kinase inhibitors. As used herein, “response” is defined by standard clinical criteria, importantly including amelioration of transfusion-dependent anemia, which is a major hallmark of myelodysplastic syndromes (MDS).
Pre-therapy bone marrow mononuclear cells from 32 patients were analyzed using the Illumina 450K methylation array platform.
In summary, seven (7) of 32 MDS patients had complete response or CR (Transfusion independence (TI)+increase in hemoglobin (Hb)>2 g/dL), ten (10) had partial response or PR (TI without Hb increase) and fifteen (15) had no response or NR. […] Bisulfite sequencing (which allows quantification of multiple consecutive CpGs in an amplicon) of several differentially methylated loci confirmed the Illumina 450K data.

COc1cc(OC)c(/C=C/S(=O)(=O)Cc2ccc(OC)c(NCC(=O)[O-])c2)c(OC)c1.[Na+] [Rigosertib]
complete response or CR (Transfusion independence (TI)+increase in hemoglobin (Hb)>2 g/dL): 7
no response or NR: 15
partial response or PR (TI without Hb increase): 10
